The structures appear in SMILES notation.

The experiment addresses T1, human renin (Homo sapiens, UniProt P00797).
T1 sequence (P00797 67-406): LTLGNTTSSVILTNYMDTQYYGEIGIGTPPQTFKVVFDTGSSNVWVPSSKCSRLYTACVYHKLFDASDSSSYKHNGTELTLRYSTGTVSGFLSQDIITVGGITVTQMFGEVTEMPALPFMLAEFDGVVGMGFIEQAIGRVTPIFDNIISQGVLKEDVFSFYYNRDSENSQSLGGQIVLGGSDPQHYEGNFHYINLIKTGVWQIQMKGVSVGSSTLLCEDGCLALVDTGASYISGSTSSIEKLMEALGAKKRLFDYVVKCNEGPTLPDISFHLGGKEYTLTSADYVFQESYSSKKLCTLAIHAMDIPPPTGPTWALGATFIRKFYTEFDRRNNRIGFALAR
Kind of experiment: In vitro Test With Pure Human Renin. The experiment is classed as biochemical. The conditions noted are these: human tetradecapeptide substrate, pH 7.4, 3 h at 37° C., angiotensin I by RIA. On the procedure: The tests can be carried out in analogy to those described by D. T. Pals et al. in Hypertension Vol. 8, 1105-1112 (1986) or J. Boger et al. in J. Med. Chem. 28, 1779-1790 (1985) or […] et al. in J. Med. Chem. 30, 2137-2144 (1987) or T. Kokubu et al. in Biochem. Biophys. Res. Commun. 118, 929-993 (1984): In vitro Test With Pure Human Renin The test is carried out in Eppendorf test tubes. The incubation mixture consists of (1) 100 μl of human renin in buffer A (0.1 M sodium phosphate solution, pH 7.4, containing 0.1% bovine serum albumin, 0.1% sodium aside and 1 mM ethylenediaminetetraacetic acid), sufficient for a renin activity of 2-3 ng of angiotensin I/ml/hr.; (2) 145 μl of buffer A: (3) 30 μl of 10 mM human tetradecapeptide renin substrate (hTD) in 10 mM hydrochloric acid: (4) 15 μl of dimethyl sulphoxide with or without inhibitor and (5) 10 μl of a 0.03 molar solution of hydroxyquinoline sulphate in water. The samples are incubated for three hours at 37° C. and, respectively, 4° C. in triplicate. 2×100 μl samples per test tube are used in order to measure the production of angiotensin I via RIA (standard radioimmunoassay; clinical assay solid phase kit). Cross reactivities of the antibody used in the RIA are: angiotensin I 100%; angiotensin II 0.0013%; hTD (angiotensin […]-OH) 0.09%. The production of angiotensin I is determined by the difference between the test at 37° C. and that at 4° C. The following controls are carried out: (a) Incubation of hTD samples without renin and without inhibitor at 37° C. and 4° C. The difference between these two values gives the base value of the angiotensin I production. (b) Incubation of hTD samples with renin, but without inhibitor at 37° C. and 4° C. The difference between these values gives the maximum value of the angiotensin I production. In each sample the base value of the angiotensin I production is subtracted from the angiotensin I production which is determined. […] The IC50 values are determined from a linear regression curve from a logit-log plot.
As to `COC(=O)CCN1CCCc2ccc(COC3CNCC[C@@H]3c3ccc(OCCCOCc4ccccc4OC)cc3)cc21` (mixture of isomers) [E, (3RS,4R)-3-[7-(4-[4-[3-(2-methoxy-benzyloxy)-propoxy]-phenyl]-piperidin-3-yloxymethyl)-3,4-dihydro-2H-quinolin-1-yl]-propionic acid methyl ester], 0.04 nM corresponded to half-maximal inhibition (IC50).

Regarding `COc1ccccc1COCCCOc1ccc([C@H]2CCNC[C@@H]2OCc2ccc3c(c2)N(CCNC(C)=O)CCC3)cc1` [A, (3R,4R)-N-[2-[7-[4-[4-[3-(2-methoxy-benzyloxy)-propoxy]-phenyl]-piperidin-3-yloxymethyl]-3,4-dihydro-2H-quinolin-1-yl]-ethyl]-acetamide], 0.05 nM corresponded to half-maximal inhibition (IC50).

With `CCOC(=O)CN1CCCc2ccc(CO[C@H]3CNCC[C@@H]3c3ccc(OCCCOCc4ccccc4OC)cc3)cc21` [B, (3R,4R)-[7-(4-[4-[3-(2-methoxy-benzyloxy)-propoxy]-phenyl]-piperidin-3-yloxymethyl)-3,4-dihydro-2H-quinolin-1-yl]-acetic acid ethyl ester], the IC50 (in general, the concentration that gives 50% inhibition) came out at 0.05 nM.

As for `COc1ccccc1COCCCOc1ccc([C@H]2CCNC[C@@H]2OCc2ccc3c(c2)N(CCCO)CCC3)cc1` [C, (3R,4R)-3-[7-[4-[4-[3-(2-methoxy-benzyloxy)-propoxy]-phenyl]-piperidin-3-yloxymethyl]-3,4-dihydro-2H-quinolin-1-yl]-propan-1-ol], half-maximal inhibition (IC50) required 0.08 nM.

The molecule `COc1ccccc1COCCCOc1ccc([C@H]2CCNC[C@@H]2OCc2ccc3c(c2)N(CCNS(N)(=O)=O)CCC3)cc1` [Compound I, (3R,4R)-N-[2-[7-[4-[4-[3-(2-methoxy-benzyloxy)-propoxy]-phenyl]-piperidin-3-yloxymethyl]-3,4-dihydro-2H-quinolin-1-yl]-ethyl]-sulfamide] yielded an IC50 of 0.06 nM. The IC50 values of the last two molecules are within 1.5-fold of each other.

On to `COC(=O)CN1CCCc2ccc(CO[C@H]3CNCC[C@@H]3c3ccc(OCCCOCc4ccccc4OC)cc3)cc21` [D, (3R,4R)-[7-(4-[4-[3-(2-methoxy-benzyloxy)-propoxy]-phenyl]-piperidin-3-yloxymethyl)-3,4-dihydro-2H-quinolin-1-yl]-acetic acid methyl ester], for which the concentration for half-maximal inhibition (IC50) came to 0.02 nM.

Take `COCCCN1CCCc2ccc(CO[C@H]3CNCC[C@@H]3c3ccc(OCCCOCc4ccccc4OC)cc3)cc21` [F, (3R,4R)-7-[4-[4-[3-(2-methoxy-benzyloxy)-propoxy]-phenyl]-piperidin-3-yloxymethyl)-1-(3-methoxy-propyl]-1,2,3,4-tetrahydro-quinoline]: the IC50 came to 0.05 nM.

On to `COc1ccccc1COCCCOc1ccc([C@H]2CCNC[C@@H]2OCc2ccc3c(c2)N(CC#N)CCC3)cc1` [G, (3R,4R)-[7-(4-[4-[3-(2-methoxy-benzyloxy)-propoxy]-phenyl]-piperidin-3-yloxymethyl)-3,4-dihydro-2H-quinolin-1-yl]-acetonitrile], for which 0.07 nM corresponded to half-maximal inhibition (IC50). This IC50 and that of the molecule before are within 1.5-fold of each other.

In the case of `COc1ccccc1COCCCOc1ccc([C@H]2CCNC[C@@H]2OCc2ccc3c(c2)N(CCNS(C)(=O)=O)CCC3)cc1` [H, (3R,4R)-N-[2-[7-[4-[4-[3-(2-methoxy-benzyloxy)-propoxy]-phenyl]-piperidin-3-yloxymethyl]-3,4-dihydro-2H-quinolin-1-yl]-ethyl]-methanesulfonamide], the IC50 was 0.07 nM.

`COc1ccccc1COCCCOc1ccc([C@H]2CCNC[C@@H]2OCc2ccc3c(c2)N(CCNC(N)=O)CCC3)cc1` [J] gave an IC50 of 0.09 nM. This IC50 and that of the molecule before are within 1.5-fold of each other.

In turn, `COc1ccccc1COCCCOc1ccc([C@H]2CCNC[C@@H]2OCc2ccc3c(c2)N(CCNC(=O)C(F)(F)F)CCC3)cc1` [K, (3R,4R)-2,2,2-trifluoro-N-[2-[7-[4-[4-[3-(2-methoxy-benzyloxy)-propoxy]-phenyl]-piperidin-3-yloxymethyl]-3,4-dihydro-2H-quinolin-1-yl]-ethyl]-acetamide] showed a half-inhibitory concentration (IC50) of 0.05 nM.

For the origin of these results see patent US6197959A, “Piperidine derivatives” (Hoffmann-La Roche Inc., priority 1999, dated 2001).
